Data as given in article PMC12564265, “Navigating the Deep Eutectic Solvent Landscape: Experimental and Machine Learning Solubility Explorations of Syringic, p-Coumaric, and Caffeic Acids” (International Journal of Molecular Sciences, 2025).
Several values for one entry are separate records, joined by “and”; a condition that tells them apart may be missing. Identical values can stand only once.

Assays:
[1] = Shake-flask solubility with spectrophotometric measurement in neat deep eutectic solvents; assay type: physicochemical
Experimental: (§1) In order to determine the solubility of the three studied phenolic acids in deep eutectic solvents, a very well-established shake-flask method coupled with spectrophotometric measurements was utilized. The initial procedure involved the preparation of various DESs, which was conducted by mixing their HBA and HBD counterparts in a glass vessel and heating the composition until the formation of a transparent, uniform liquid. […] For additional measurements, the DESs were mixed with water in varying proportions, creating aqueous DES systems. Saturated solutions of CAF, SYR, and COU were obtained by adding excess amounts of these compounds to test tubes containing either a neat deep eutectic solvent or its aqueous solution. Such samples were placed in the Orbital Shaker Incubator ES-20/60 from Biosan (Riga, Latvia) and heated for 24 h at 25 °C, 30 °C, 35 °C, and 40 °C (±0.1 °C) with simultaneous mixing at 60 rpm. Before measurements, the samples were filtered using a PTFE syringe filter from Qpore (Dallas, TX, USA) with a 0.22 μm pore size. In order to avoid possible precipitation of the saturated solutions at decreased temperatures, the test tubes, syringes, pipette tips, and filters were kept at a temperature identical to that of the samples. The spectrophotometric measurements required the preparation of calibration curves for the three APIs. This involved the preparation of a stock solution of each compound in methanol, which was later successfully diluted, and the obtained solutions of varying concentrations were measured using an A360 spectrophotometer from AOE Instruments (Shanghai, China). The wavelength range was set to 200-500 nm, and the resolution was 1 nm. The analytical wavelengths were determined to be 324 nm for caffeic acid, 273 nm for syringic acid, and 308 nm for p-coumaric acid. The final regression equations, obtained after averaging three distinct sets of measurements, are collected in Table 2 together with determination coefficients and limits of detection (LOD) and quantification (LOQ) for the calibration curves. The measurements of the samples were conducted with the same spectrophotometer and identical settings. Methanol was used for the dilution of the samples so that they could remain within the linearity range of the method. Complete spectra of the samples were recorded, but for the solubility determination, the absorbance values at a specific analytical wavelength were considered. These values were combined with the corresponding regression equations of the calibration curves and served for the calculation of the concentration of the three phenolic acids in the studied samples. The densities of such samples were also measured, and for this task 1 mL of each sample was weighed to a precision of 0.1 mg using an AS 110 R2.PLUS analytical balance from […] (Radom, Poland). The obtained densities enabled the calculation of mole fractions of CAF, SYR, and COU dissolved in the studied DESs. For each considered system, three distinct measurements were conducted, and the results were averaged.

[2] = Shake-flask solubility with spectrophotometric measurement in aqueous DES mixtures; assay type: physicochemical; settings: Bet – GLY 1:2 + water
Experimental: as §1

## O=C(O)C=Cc1ccc(O)cc1 [p-coumaric acid, 4-hydroxycinnamic acid]
[1]; neat DES Bet - DEG, HBA:HBD molar ratio 1:1, 25 °C
  Mole fraction solubility: 0.0490±0.0005 mole fraction
[1]; neat DES Bet - DEG, HBA:HBD molar ratio 1:2, 25 °C
  Mole fraction solubility: 0.0639±0.0004 mole fraction
[1]; neat DES Bet - DEG, HBA:HBD molar ratio 1:4, 25 °C
  Mole fraction solubility: 0.0575±0.0005 mole fraction
[1]; neat DES Bet - ETG, HBA:HBD molar ratio 1:1, 25 °C
  Mole fraction solubility: 0.0323±0.0004 mole fraction
[1]; neat DES Bet - ETG, HBA:HBD molar ratio 1:2, 25 °C
  Mole fraction solubility: 0.0351±0.0002 mole fraction
[1]; neat DES Bet - GLY, HBA:HBD molar ratio 1:1, 25 °C
  Mole fraction solubility: 0.0670±0.0005 mole fraction
[1]; neat DES Bet - GLY, HBA:HBD molar ratio 1:2, 25 °C
  Mole fraction solubility: 0.0898 mole fraction
[1]; neat DES Bet - GLY, HBA:HBD molar ratio 1:2, 25 °C, listed as coumaric acid
  Mole fraction solubility: 0.0898±0.0003 mole fraction
[1]; neat DES Bet - GLY, HBA:HBD molar ratio 1:4, 25 °C
  Mole fraction solubility: 0.0739±0.0004 mole fraction
[1]; neat DES Bet - TEG, HBA:HBD molar ratio 1:1, 25 °C
  Mole fraction solubility: 0.0648±0.0006 mole fraction
[1]; neat DES Bet - TEG, HBA:HBD molar ratio 1:2, 25 °C
  Mole fraction solubility: 0.0894±0.0005 mole fraction
[1]; neat DES Bet - TEG, HBA:HBD molar ratio 1:4, 25 °C
  Mole fraction solubility: 0.0778±0.0005 mole fraction
[1]; neat DES ChCl - DEG, HBA:HBD molar ratio 1:1, 25 °C
  Mole fraction solubility: 0.0644±0.0004 mole fraction
[1]; neat DES ChCl - DEG, HBA:HBD molar ratio 1:2, 25 °C
  Mole fraction solubility: 0.0775±0.0005 mole fraction
[1]; neat DES ChCl - ETG, HBA:HBD molar ratio 1:1, 25 °C
  Mole fraction solubility: 0.0387±0.0004 mole fraction
[1]; neat DES ChCl - ETG, HBA:HBD molar ratio 1:2, 25 °C
  Mole fraction solubility: 0.0470±0.0003 mole fraction
[1]; neat DES ChCl - ETG, HBA:HBD molar ratio 1:4, 25 °C
  Mole fraction solubility: 0.0411±0.0004 mole fraction
[1]; neat DES ChCl - TEG, HBA:HBD molar ratio 1:2, 25 °C
  Mole fraction solubility: 0.0997 mole fraction
[2]; x*DES 0.1, 25°C
  Mole fraction solubility: 0.0093±0.0001 mole fraction
[2]; x*DES 0.1, 30°C
  Mole fraction solubility: 0.0116±0.0001 mole fraction
[2]; x*DES 0.1, 35°C
  Mole fraction solubility: 0.0146±0.0001 mole fraction
[2]; x*DES 0.1, 40°C
  Mole fraction solubility: 0.0188±0.0001 mole fraction
[2]; x*DES 0.2, 25°C
  Mole fraction solubility: 0.0212±0.0003 mole fraction
[2]; x*DES 0.2, 30°C
  Mole fraction solubility: 0.0261±0.0002 mole fraction
[2]; x*DES 0.2, 35°C
  Mole fraction solubility: 0.0328±0.0003 mole fraction
[2]; x*DES 0.2, 40°C
  Mole fraction solubility: 0.0429±0.0003 mole fraction
[2]; x*DES 0.3, 25°C
  Mole fraction solubility: 0.0316±0.0004 mole fraction
[2]; x*DES 0.3, 30°C
  Mole fraction solubility: 0.0385±0.0003 mole fraction
[2]; x*DES 0.3, 35°C
  Mole fraction solubility: 0.0489±0.0004 mole fraction
[2]; x*DES 0.3, 40°C
  Mole fraction solubility: 0.0631±0.0003 mole fraction
[2]; x*DES 0.4, 25°C
  Mole fraction solubility: 0.0424±0.0005 mole fraction
[2]; x*DES 0.4, 30°C
  Mole fraction solubility: 0.0510±0.0004 mole fraction
[2]; x*DES 0.4, 35°C
  Mole fraction solubility: 0.0654±0.0004 mole fraction
[2]; x*DES 0.4, 40°C
  Mole fraction solubility: 0.0850±0.0007 mole fraction
[2]; x*DES 0.5, 25°C
  Mole fraction solubility: 0.0545±0.0003 mole fraction
[2]; x*DES 0.5, 30°C
  Mole fraction solubility: 0.0655±0.0004 mole fraction
[2]; x*DES 0.5, 35°C
  Mole fraction solubility: 0.0843±0.0006 mole fraction
[2]; x*DES 0.5, 40°C
  Mole fraction solubility: 0.1107±0.0012 mole fraction
[2]; x*DES 0.6, 25°C
  Mole fraction solubility: 0.0687±0.0004 mole fraction
[2]; x*DES 0.6, 30°C
  Mole fraction solubility: 0.0827±0.0006 mole fraction
[2]; x*DES 0.6, 35°C
  Mole fraction solubility: 0.1045±0.0009 mole fraction
[2]; x*DES 0.6, 40°C
  Mole fraction solubility: 0.1410±0.0021 mole fraction
[2]; x*DES 0.7, 25°C
  Mole fraction solubility: 0.0803±0.0006 mole fraction
[2]; x*DES 0.7, 30°C
  Mole fraction solubility: 0.0972±0.0008 mole fraction
[2]; x*DES 0.7, 35°C
  Mole fraction solubility: 0.1233±0.0020 mole fraction
[2]; x*DES 0.7, 40°C
  Mole fraction solubility: 0.1617±0.0014 mole fraction
[2]; x*DES 0.8, 25°C
  Mole fraction solubility: 0.0900±0.0007 mole fraction
[2]; x*DES 0.8, 30°C
  Mole fraction solubility: 0.1117±0.0011 mole fraction
[2]; x*DES 0.8, 35°C
  Mole fraction solubility: 0.1413±0.0023 mole fraction
[2]; x*DES 0.8, 40°C
  Mole fraction solubility: 0.1818±0.0015 mole fraction
[2]; x*DES 0.9, 25°C
  Mole fraction solubility: 0.0926 mole fraction and 0.0926±0.0006 mole fraction
